In patent publication US20060216775A1, “Compositions and methods for analysis and manipulation of enzymes in biosynthetic proteomes” (priority 2003, published 2006):

Molecular target: T1, VibB (UniProt P0C6D3+P39135)
T1 construct: made in house; host or cells: E. coli BL21 (DE3), crude lysate
Type: biochemical, Vibrio cholera
Settings: cell lysate of E. coli BL21 producing VibB, recombinant Sfp, SDS-PAGE, UV irradiation
From the text: To investigate PPTase transfer of non-thioester CoA derivatives, Sfp was used for post-translational modification of known, heterologously expressed CP domains (FIG. 11). As a first experiment, VibB was used. VibB is a small protein from the Vibrio cholera vibriobactin biosynthetic machinery that consists of a modular NRP synthase system. VibB contains only one carrier protein domain and as such is a perfect model system due to its small size and facile expression in E. coli. Cell lysate was collected from induced E. coli BL21 cells producing VibB from a pET24 expression vector. An aliquot of this lysate was incubated with CoA-BODIPY derivative and recombinant Sfp and analyzed by SDS-PAGE. […] Coomassie staining of the gel confirmed the band to be fluorescently-tagged VibB (32.6 kD) (FIG. 11C). […]
One Liter of E. Coli BL21 (DE3) cells induced to express recombinant VibB, FrenACP, OtcACP, and TcmACP, each in pET22b vectors (Novagen, Madison, Wis.), were pelleted, resuspended, and lysed by sonication in 30 mL 0.1 M Tris-Cl pH 8.0 with 1% glycerol in the presence of 500 μL of a 10 mM protease inhibitor cocktail containing bestatin, pepstatin A, E-64, and phosphoramidon (Sigma-Aldrich) and sonicated by pulsing for 5 minutes on ice. […] Protein concentration was determined using the Bradford method with bovine serum albumin (Sigma-Aldrich) as a standard.

T1 sequence (P39135 whole entry): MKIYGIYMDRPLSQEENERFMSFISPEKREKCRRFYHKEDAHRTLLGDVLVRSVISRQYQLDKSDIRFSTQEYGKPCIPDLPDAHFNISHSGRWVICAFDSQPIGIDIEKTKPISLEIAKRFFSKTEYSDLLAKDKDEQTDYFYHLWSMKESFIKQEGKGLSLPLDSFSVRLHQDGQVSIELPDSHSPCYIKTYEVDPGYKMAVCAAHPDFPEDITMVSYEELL
T1 sequence (P0C6D3 whole entry): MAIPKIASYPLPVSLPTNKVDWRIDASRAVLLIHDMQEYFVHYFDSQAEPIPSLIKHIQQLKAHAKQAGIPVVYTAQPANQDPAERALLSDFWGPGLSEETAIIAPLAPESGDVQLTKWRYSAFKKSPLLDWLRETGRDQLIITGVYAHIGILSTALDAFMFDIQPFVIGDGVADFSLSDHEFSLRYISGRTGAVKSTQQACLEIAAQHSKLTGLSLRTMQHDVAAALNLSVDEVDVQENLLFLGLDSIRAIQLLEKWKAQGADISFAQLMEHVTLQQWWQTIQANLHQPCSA

Compound: O=C(O)c1cc(N2C(=O)C=CC2=O)ccc1-c1c2cc(F)c(=O)cc-2oc2cc(O)c(F)cc12 [1b, Oregon Green® 488 maleimide]
- fluorescent labeling of VibB: Comparable labeling
